Values of other authors in US12478681B2, “Non-activated, amorphous, pH neutral, two-part bedside-ready clay delivery system that treats pathogen infections in humans and animals” (priority 2019, dated 2025).

elemental iron
Oral dose that can cause severe toxicity, morbidity and mortality: > 60 mg/kg | Oral dose that can have toxicity symptoms: 20 to 60 mg/kg | Oral dose that is non-toxic: < 20 mg/kg
